# Measurements as given in patent publication US20240383882A1 (Ecstasy LLC, priority 2020, published 2024).
# Where a name gives a salt, the structure may show the parent alone.
# Test system: male C57BL/6 mice
# Test: 55° C. warm-water tail-flick test (antinociception)
# Assay type: in vivo
# Conditions: Mus musculus, sc, 0.5 h, compounds of Table I; s.c.; 30 min; 55° C. water; configuration tested as in Table II; read-out: ED50 (mg/kg) at 30 min on C57BL/6 mice in Warm-water Tail-flick Test
# In short: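 Mice with baseline tail-flick latency within 2 s at 55° C received compound s.c. and were retested at 30, 60, 90 and 120 min. % antinociception = 100×(test−control latency)/(20−control latency); ED50 in mg/kg.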
row,SMILES,ED50 [mg/kg]
1,"CCOCC1(CCn2c(=O)[nH]c3cnccc32)CCN(C(C)(C)c2ccc(C)nc2)C1 (centres unmarked) [Compound 92, 1-(2-(3-(ethoxymethyl)-1-(2-(6-methylpyridin-3-yl)propan-2-yl)pyrrolidin-3-yl)ethyl)-1,3-dihydro-2H-imidazo[4,5-c]pyridin-2-one citrate]",≤ 30
2,CCOCC1(CCn2c(=O)n(CC(C)C)c3cc(F)c(F)cc32)CCN(C(C)(C)c2ccc(C)nc2)C1 (centres unmarked) [Compound 100],≤ 30

# Same assay, conditions: Mus musculus; half maximal effective dose in mice; using one of: warm water tail-flick test, spared nerve injury, chronic constriction injury, or Complete Freund's adjuvant induced inflammatory pain (not stated which per compound); read-out: Biological Activity (ED50)
row,SMILES,ED50 [mg/kg]
1,"CC(C)(c1ccccn1)N1CC[C@@](CCc2ccc(C#N)cc2)(C(=O)C(F)(F)F)C1 [Compound 100, (R)-4-(2-(1-(2-(pyridin-2-yl)propan-2-yl)-3-(2,2,2-trifluoroacetyl)pyrrolidin-3-yl)ethyl) benzonitrile]",> 50
2,"CC(C)(c1ccccn1)N1CC[C@@](CCc2ccc(C#N)c(F)c2)(C(=O)C(F)(F)F)C1 [Compound 105, (R)-2-fluoro-4-(2-(1-(2-(pyridin-2-yl)propan-2-yl)-3-(2,2,2-trifluoroacetyl)pyrrolidin-3-yl)ethyl) benzonitrile]",> 50
3,"CC(C)(c1ccccn1)N1CC[C@@](CCc2ccc(C#N)cc2)(c2ncc[nH]2)C1 [Compound 107, (R)-4-(2-(3-(1H-imidazol-2-yl)-1-(2-(pyridin-2-yl)propan-2-yl)pyrrolidin-3-yl)ethyl) benzonitrile]",> 50
4,"CC(C)(c1ccccn1)N1CC[C@@](CCc2ccc(C#N)cc2)(c2ncc(C(F)(F)F)[nH]2)C1 [Compound 108, (R)-4-(2-(1-(2-(pyridin-2-yl)propan-2-yl)-3-(5-(trifluoromethyl)-1H-imidazol-2-yl)pyrrolidin-3-yl)ethyl) benzonitrile]",> 50
5,"CC(C)(c1ccccn1)N1CC[C@@](CCc2ccc(C#N)cc2F)(COCc2ccccc2)C1 [Compound 109, (R)-4-(2-(3-((benzyloxy)methyl)-1-(2-(pyridin-2-yl)propan-2-yl)pyrrolidin-3-yl)ethyl)-3-fluorobenzonitrile]",> 50
6,"CC(C)(c1ccccn1)N1CC[C@](CO)(CCc2ccc(C#N)c(F)c2)C1 [Compound 110, (R)-2-fluoro-4-(2-(3-(hydroxymethyl)-1-(2-(pyridin-2-yl)propan-2-yl)pyrrolidin-3-yl)ethyl) benzonitrile]",≤ 30
7,"CC(C)(c1ccccn1)N1CC[C@](CO)(CCc2ccc(C#N)cc2F)C1 [Compound 111, (R)-3-fluoro-4-(2-(3-(hydroxymethyl)-1-(2-(pyridin-2-yl)propan-2-yl)pyrrolidin-3-yl)ethyl) benzonitrile]",> 50
8,"CC(C)(c1ccccn1)N1CC[C@@](CCc2ccc(C#N)c(F)c2)(COCc2ccccc2)C1 [Compound 112, (R)-4-(2-(3-((benzyloxy)methyl)-1-(2-(pyridin-2-yl)propan-2-yl)pyrrolidin-3-yl)ethyl)-2-fluorobenzonitrile]",> 50
9,"CC(C)(c1ccccn1)N1CC[C@@](CCc2ccc(C#N)cn2)(COCc2ccccc2)C1 [Compound 113, (R)-6-(2-(3-((benzyloxy)methyl)-1-(2-(pyridin-2-yl)propan-2-yl)pyrrolidin-3-yl)ethyl) nicotinonitrile]",> 50
10,"CC(C)(c1ccccn1)N1CC[C@](CO)(CCc2ccc(C#N)cn2)C1 [Compound 114, (R)-6-(2-(3-(hydroxymethyl)-1-(2-(pyridin-2-yl)propan-2-yl)pyrrolidin-3-yl)ethyl) nicotinonitrile]",> 50
11,"CC(C)(c1ccccn1)N1CC[C@](CN)(CCc2ccc(C#N)cc2)C1 [Compound 115, (S)-4-(2-(3-(aminomethyl)-1-(2-(pyridin-2-yl)propan-2-yl)pyrrolidin-3-yl)ethyl) benzonitrile]",> 50
12,"CC(C)(c1ccccn1)N1CC[C@@](CCc2ccc(C#N)cc2)(C(O)(C(F)(F)F)C(F)(F)F)C1 [Compound 119, (R)-4-(2-(3-(1,1,1,3,3,3-hexafluoro-2-hydroxypropan-2-yl)-1-(2-(pyridin-2-yl)propan-2-yl)pyrrolidin-3-yl)ethyl) benzonitrile]",> 50
13,"CC(C)(c1ccccn1)N1CC[C@@](CCc2ccc(C#N)cc2)(c2nnco2)C1 [Compound 124, (R)-4-(2-(3-(1,3,4-oxadiazol-2-yl)-1-(2-(pyridin-2-yl)propan-2-yl)pyrrolidin-3-yl)ethyl) benzonitrile]",> 50
14,"CC(C)(c1ccccn1)N1CC[C@@](CCc2cccc(C#N)c2)(COCc2ccccc2)C1 [Compound 125, (R)-3-(2-(3-((benzyloxy)methyl)-1-(2-(pyridin-2-yl)propan-2-yl)pyrrolidin-3-yl)ethyl) benzonitrile]",> 50
15,"CC(C)(c1ccccn1)N1CC[C@@](CCc2ccccc2C#N)(COCc2ccccc2)C1 [Compound 126, (R)-2-(2-(3-((benzyloxy)methyl)-1-(2-(pyridin-2-yl)propan-2-yl)pyrrolidin-3-yl)ethyl) benzonitrile]",> 50
16,"CC(C)(c1ccccn1)N1CC[C@](CO)(CCc2cccc(C#N)c2)C1 [Compound 127, (R)-3-(2-(3-(hydroxymethyl)-1-(2-(pyridin-2-yl)propan-2-yl)pyrrolidin-3-yl)ethyl) benzonitrile]",> 50
17,"CCOC[C@]1(CCc2cccc(C#N)c2)CCN(C(C)(C)c2ccccn2)C1 [Compound 128, (R)-3-(2-(3-(ethoxymethyl)-1-(2-(pyridin-2-yl)propan-2-yl)pyrrolidin-3-yl)ethyl) benzonitrile]",> 50

row,SMILES,ED50 [mg/kg]
1,"CC(C)(c1ccccn1)N1CC[C@](CO)(CCc2ccccc2C#N)C1 [Compound 129, (R)-2-(2-(3-(hydroxymethyl)-1-(2-(pyridin-2-yl)propan-2-yl)pyrrolidin-3-yl)ethyl) benzonitrile]",> 50
2,"CCOC[C@]1(CCc2ccccc2C#N)CCN(C(C)(C)c2ccccn2)C1 [Compound 130, (R)-2-(2-(3-(ethoxymethyl)-1-(2-(pyridin-2-yl)propan-2-yl)pyrrolidin-3-yl)ethyl) benzonitrile]",> 50
3,"CC(C)(c1ccccn1)N1CC[C@@](CCc2ccc(C#N)cc2)(COCc2ccccc2)C1 [Compound 131, (R)-4-(2-(3-((benzyloxy)methyl)-1-(2-(pyridin-2-yl)propan-2-yl)pyrrolidin-3-yl)ethyl) benzonitrile]",> 50
4,"CCOC[C@]1(CCc2ccc(C#N)cc2)CCN(C(C)(C)c2ccccn2)C1 [Compound 132, (R)-4-(2-(3-(ethoxymethyl)-1-(2-(pyridin-2-yl)propan-2-yl)pyrrolidin-3-yl)ethyl) benzonitrile]",> 50
5,"CC(C)(c1ccccn1)N1CC[C@@](CCc2cccc(C#N)c2)([C@H](O)C(F)(F)F)C1 [Compound 133, 3-(2-((R)-1-(2-(pyridin-2-yl)propan-2-yl)-3-((S)-2,2,2-trifluoro-1-hydroxyethyl)pyrrolidin-3-yl)ethyl) benzonitrile]",> 50
6,"CCOC(C(F)(F)F)(C(F)(F)F)[C@]1(CCc2ccc(C#N)cc2)CCN(C(C)(C)c2ccccn2)C1 [Compound 137, (R)-4-(2-(3-(2-ethoxy-1,1,1,3,3,3-hexafluoropropan-2-yl)-1-(2-(pyridin-2-yl)propan-2-yl)pyrrolidin-3-yl)ethyl) benzonitrile]",> 50
7,"CC(C)(c1ccccn1)N1CC[C@@](CCc2ccc(C#N)cc2)(C(=O)O)C1 [Compound 138, (R)-3-(4-cyanophenethyl)-1-(2-(pyridin-2-yl)propan-2-yl)pyrrolidine-3-carboxylic acid]",> 50
8,"CCOC(=O)[C@]1(CCc2ccc(C#N)cc2)CCN(C(C)(C)c2ccccn2)C1 [Compound 139, ethyl (R)-3-(4-cyanophenethyl)-1-(2-(pyridin-2-yl)propan-2-yl)pyrrolidine-3-carboxylate]",> 50
9,"CC(C)(c1ccc(C(F)(F)F)nc1)N1CC[C@@](CCc2ccc(C#N)cc2)(C(C)(C)O)C1 [Compound 140, (R)-4-(2-(3-(2-hydroxypropan-2-yl)-1-(2-(6-(trifluoromethyl)pyridin-3-yl)propan-2-yl)pyrrolidin-3-yl)ethyl) benzonitrile]",> 50
10,"CC(C)(c1ccccn1)N1CC[C@@](CCc2ccc(C#N)s2)(COCc2ccccc2)C1 [Compound 141, (R)-5-(2-(3-((benzyloxy)methyl)-1-(2-(pyridin-2-yl)propan-2-yl)pyrrolidin-3-yl)ethyl)thiophene-2-carbonitrile]",≤ 30
11,"COc1cccc(C(C)(C)N2CC[C@](CO)(CCc3ccc(C#N)cc3)C2)c1 [Compound 142, (R)-4-(2-(3-(hydroxymethyl)-1-(2-(3-methoxyphenyl)propan-2-yl)pyrrolidin-3-yl)ethyl) benzonitrile]",> 50
12,"COc1cccc(C(C)(C)N2CC[C@@](CCc3ccc(C#N)cc3)(C(=O)O)C2)c1 [Compound 143, (R)-3-(4-cyanophenethyl)-1-(2-(3-methoxyphenyl)propan-2-yl)pyrrolidine-3-carboxylic acid]",> 50
13,"Cc1cccc(C(C)(C)N2CC[C@](CO)(CCc3ccc(C#N)cc3)C2)n1 [Compound 144, (R)-4-(2-(3-(hydroxymethyl)-1-(2-(6-methylpyridin-2-yl)propan-2-yl)pyrrolidin-3-yl)ethyl) benzonitrile]",> 50
14,"Cc1cccc(C(C)(C)N2CC[C@@](CCc3ccc(C#N)cc3)(C(=O)O)C2)n1 [Compound 145, (R)-3-(4-cyanophenethyl)-1-(2-(6-methylpyridin-2-yl)propan-2-yl)pyrrolidine-3-carboxylic acid]",> 50
15,"CC(C)(c1ccccn1)N1CC[C@](CO)(CCc2ccc(F)c(F)c2)C1 [Compound 146, (R)-(3-(3,4-difluorophenethyl)-1-(2-(pyridin-2-yl)propan-2-yl)pyrrolidin-3-yl)methanol]",> 50
16,"CC(C)(c1ccccn1)N1CC[C@](CO)(CCc2ccc(C#N)s2)C1 [Compound 147, (R)-5-(2-(3-(hydroxymethyl)-1-(2-(pyridin-2-yl)propan-2-yl)pyrrolidin-3-yl)ethyl)thiophene-2-carbonitrile]",> 50
